Measurements reported in patent US10640545B2 (THE GOVERNORS OF THE UNIVERSITY OF ALBERTA, priority 2017, dated 2020).
*1 amine or outer side, *2 acyl side, *3 side chain or, on linkers, in order; H or OH if unused. Where a SMILES comes first, the peptide text is derived from it. [ ]: non-standard residue; d: D form. Phe(4-Br) = N[C@@H](Cc1ccc(Br)cc1)C(=O)O; X1 = N=C(N)NCCCN(N[*:1])C(=O)[*:2]; azaLeu = CC(C)CN(N[*:1])C(=O)[*:2]; Nle = CCCC[C@H](N)C(=O)O; Aib = CC(C)(N)C(=O)O

Assays:
[1] = in vitro; details: human, plasma
[2] = molecular target: NEP (Homo sapiens, UniProt P08473); test: Neprilysin inhibition assay (degradation of 1 after preincubation with peptide); assay type: biochemical; design: purchased Sino Biological; details: preincubation of NEP with equimolar peptide
Sequence of NEP (P08473 whole entry): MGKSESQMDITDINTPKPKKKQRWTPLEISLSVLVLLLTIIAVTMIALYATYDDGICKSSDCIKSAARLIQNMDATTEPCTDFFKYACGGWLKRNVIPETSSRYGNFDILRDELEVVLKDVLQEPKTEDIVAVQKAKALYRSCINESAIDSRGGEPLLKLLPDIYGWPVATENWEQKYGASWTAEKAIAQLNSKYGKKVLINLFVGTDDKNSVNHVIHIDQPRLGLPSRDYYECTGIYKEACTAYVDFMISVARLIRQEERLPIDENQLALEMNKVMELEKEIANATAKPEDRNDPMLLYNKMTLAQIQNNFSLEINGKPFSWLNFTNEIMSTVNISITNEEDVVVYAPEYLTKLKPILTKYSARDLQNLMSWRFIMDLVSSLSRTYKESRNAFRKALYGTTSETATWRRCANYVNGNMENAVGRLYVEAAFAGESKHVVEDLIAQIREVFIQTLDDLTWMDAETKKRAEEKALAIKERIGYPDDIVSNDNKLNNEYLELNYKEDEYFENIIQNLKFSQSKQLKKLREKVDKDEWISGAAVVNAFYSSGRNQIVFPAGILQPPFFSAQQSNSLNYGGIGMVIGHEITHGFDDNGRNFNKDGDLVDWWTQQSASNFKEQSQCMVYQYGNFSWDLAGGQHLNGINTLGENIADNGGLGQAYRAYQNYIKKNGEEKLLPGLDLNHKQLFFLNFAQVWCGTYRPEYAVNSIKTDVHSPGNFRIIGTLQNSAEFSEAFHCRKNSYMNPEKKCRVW
Protocol: This experiment investigates the ability of synthetic peptides 8-19 to inhibit the inherent proteolytic activity of NEP.
Assays were performed in duplicate (n=2) for each time point.

[3] = molecular target: T1, wild-type rat apelin receptor (Rattus norvegicus, UniProt Q9JHG3); test: Radioligand binding, displacement of [125I]-pyr-1-apelin-13 on CHO cell membranes; details: for receptor binding affinity (in words): rat apelin receptor
T1 construct: expressed in transfected cells
T1 sequence (Q9JHG3 1-377): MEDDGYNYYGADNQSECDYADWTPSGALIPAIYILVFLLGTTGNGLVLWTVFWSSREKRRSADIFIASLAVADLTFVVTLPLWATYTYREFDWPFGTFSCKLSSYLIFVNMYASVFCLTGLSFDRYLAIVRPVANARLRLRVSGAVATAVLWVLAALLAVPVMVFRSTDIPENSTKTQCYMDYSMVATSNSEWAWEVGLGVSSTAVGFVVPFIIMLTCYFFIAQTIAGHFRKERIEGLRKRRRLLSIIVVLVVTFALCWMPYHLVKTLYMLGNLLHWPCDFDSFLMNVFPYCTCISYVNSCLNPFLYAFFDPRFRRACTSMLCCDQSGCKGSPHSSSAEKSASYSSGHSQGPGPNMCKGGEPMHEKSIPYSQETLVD
Protocol: This experiment evaluated the ability of peptides of the present embodiments to bind to the wild-type rat apelin receptor, in order to examine the impact of synthetic modification within the critical RPRL motif of the apelin peptides.
Membrane preparations from CHO cells stably expressing the wild-type rat apelin receptor-EGFP were prepared as previously described (Gerbier et al., New Structural Insights Into The Apelin Receptor: Identification Of Key Residues For Apelin binding; FASEB J. 2015, 29, 314-322; Iturrioz et. al., Development Of Original Metabolically-Stable Apelin-17 Peptides With Diuretic And Cardiovascular Effects; FASEB J. 2017, 31, 687-700.) Crude membrane preparations (1 μg total mass of membranes/assay) were incubated for 3 h at 20° C. with 0.2 nM [^125I]-pyr-1-apelin-13 (monoiodinated on Lys^8 with Bolton-Hunter reagent, Perkin Elmer, Wellesley, Mass., USA) in binding buffer (50 mM HEPES, 5 mM MgCl2 1149 pH 7.5, BSA 1%) alone or in presence of the different compounds at various concentrations. The reaction was stopped by adding 4 mL of cold binding buffer, filtered on Whatman GF/C filters and washed with 5 mL of cold binding buffer. Radioactivity was then counted using a Wizard 1470 Wallac gamma counter (Perkin Elmer, Turku, Finland). Binding experiment data were analyzed with Graph Pad Prism.

[4] = test system: isolated rat hearts; test: Langendorff isolated heart, ischemia-reperfusion injury; details: ex vivo heart, 30 min ischemia; for ability to rescue the heart from ischemic reperfusion injury: peptide at start of reperfusion for 10 min at 1 pM; for max/min dP/dt, LVDP and RPP compared to native isoform 2: reperfusion
Protocol: The ex vivo heart was assessed for a variety of parameters (heart rate (HR); left ventricle developed pressure (LVDP); maximum derivative of change in systolic pressure over time (max dP/dt); minimum derivative of change in diastolic pressure over time (min dP/dt); and rate-pressure product (RPP)) indicative of general heart function and performance (FIG. 11).
Langendorff heart perfusion and ischemia-reperfusion injury were prepared and cardiac function was measured. Mice were heparinized and anaesthetized with 1.5-2% isoflurane inhalation. The heart was excised, mounted on a Langendorff system, and perfused at a consistent pressure of 80 mmHg with modified Krebs-Henseleit solution (116 mM NaCl, 3.2 mM KCl, 2.0 mM CaCl2), 1.2 mM MgSO4, 25 mM NaHCO3, 1.2 mM KH2PO4, 11 mM glucose, 0.5 mM EDTA and 2 mM pyruvate), which was kept at 37° C. and continuously oxygenated with 95% O2 and 5% CO2 which maintained the perfusion buffer at pH 7.4. After stabilization and 10 min baseline recording, global ischemia was induced for 30 min followed by 40 min of reperfusion. Apelin 17 (2) or apelin peptides (11, 17, 18, or 19) were given at the start of reperfusion for 10 min at a concentration of 1 pM. Left ventricular functions were obtained continuously by PowerLab system (ADInstruments, Australia). Data was reported as mean value of every 5 min. Left ventricular functions were reported as: Left Ventricular Developed Pressure (LVDP); Heart rate (HR); maximum derivative of change in systolic pressure over time (max dP/dt); minimum derivative of change in diastolic pressure over time (min dP/dt); and Rate Pressure Product (RPP).

[5] = test system: anesthetized mice; test: Blood pressure assay in anesthetized mice; assay type: in vivo; details: 1.4 μM/kg body weight injected, SBP, DBP, MABP
Protocol: Synthetic peptides 8-19 were tested for blood pressure lowering abilities in anesthetized mice. Apelin peptides were injected through […], monitoring blood pressure (BP) and heart rate (HR) over 60 minutes.
Mice were anaesthetized with 1.5% isoflurane/oxygen, and body temperature was monitored and maintained at 36° C. by a heating pad. The aorta was cannulated via the right carotid artery using a PV loop catheter (Model 1.2F from Scisense, Transonic) in order to continuously record arterial blood pressure and heart rate (LabScribe 2.0, Scisense). […] Results are reported as systolic blood pressure (SBP), diastolic blood pressure (DBP), mean arterial blood pressure (MABP) and heart rate (HR).
Apelin peptides 11, 56-59 as well as the KLKB1-cleavage fragments 54 and 55 were tested for blood pressure lowering abilities in anesthetized mice.
Mice were anesthetized with 1.5% isoflurane/oxygen, and body temperature was monitored and maintained at 36° C. by a heating pad. The aorta was cannulated via the right carotid artery using a PV loop catheter (model 1.2F from Scisense, Transonic) in order to continuously record arterial blood pressure and heart rate (LabScribe 2.0, Scisense). Compounds 11, and 54-59 or 55-59 (1.4 μM/kg body weight) or the same volume of saline was injected via the right jugular vein. Results are reported as systolic blood pressure (SBP), diastolic blood pressure (DBP), mean arterial blood pressure (MABP), and heart rate (HR) shown in FIGS. 15A-D.
Apelin peptides were delivered systemically via the right internal jugular vein while blood pressure (BP) and heart rate (HR) were continuously monitored in the aorta cannulated via the right carotid artery. All N-terminally extended apelin peptides, except 58, show pronounced and time-stable blood pressure lowering effects (FIGS. 15a-d). […] This correlates with the results obtained from the Ca^2+ mobilization assay.

| Structure (SMILES) | remaining at 0.5 h, 80 µM [1] [%] | remaining at 1 h, 80 µM [1] [%] | inhibition of the proteolytic activity of NEP [2] | Ki ([3]; displacement of [125I]-pyr-1-apelin-13 (0.2 nM), CHO membranes, rat apelin receptor-EGFP, means ± SE, read-out: Affinity Ki) [nM] | receptor binding affinity (in words) [3] | ability to rescue the heart from ischemic reperfusion injury [4] | max/min dP/dt, LVDP and RPP compared to native isoform 2 [4] | blood pressure lowering (hypotensive) effect [5] |
| --- | --- | --- | --- | --- | --- | --- | --- | --- |
| CCCC[C@H](NC(=O)[C@@H]1CCCN1C(=O)CNC(=O)[C@H](CCCCN)NC(=O)[C@H](Cc1c[nH]cn1)NC(=O)[C@H](CO)NC(=O)[C@H](CC(C)C)NC(=O)N(CCCNC(=N)N)NC(=O)[C@@H]1CCCN1C(=O)[C@H](CCCNC(=N)N)NC(=O)[C@H](CCC(N)=O)NC(=O)[C@H](CCCNC(=N)N)NC(=O)[C@H](CCCNC(=N)N)NC(=O)[C@H](Cc1ccccc1)NC(=O)[C@@H](N)CCCCN)C(=O)NC(C)(C)C(=O)N[C@@H](Cc1ccc(Br)cc1)C(=O)O [Peptide 17, Lys-Phe-Arg-Arg-Gln-Arg-Pro-azaArg-Leu-Ser-His-Lys-Gly-Pro-Nle-Aib-paraBrPhe] (H-KFRRQRP[X1]LSHKGP[Nle][Aib][Phe(4-Br)]-OH; N-terminus and C-terminus assumed) | 96 ± 6 | 94 ± 3 | no ability to inhibit the inherent activity of NEP | 0.14 ± 0.009 | sub-nanomolar receptor affinities | equivalent ability to rescue the heart from ischemic reperfusion injury compared to native isoform 2 | behaving very analogously to 2 | potent hypotensive activity that rivaled or bested that of native 2 or A2 variant 5 |
| CCCC[C@H](NC(=O)[C@@H]1CCCN1C(=O)CNC(=O)[C@H](CCCCN)NC(=O)[C@H](Cc1c[nH]cn1)NC(=O)[C@H](CO)NC(=O)N(CC(C)C)NC(=O)[C@H](CCCNC(=N)N)NC(=O)[C@@H]1CCCN1C(=O)[C@H](CCCNC(=N)N)NC(=O)[C@H](CCC(N)=O)NC(=O)[C@H](CCCNC(=N)N)NC(=O)[C@H](CCCNC(=N)N)NC(=O)[C@H](Cc1ccccc1)NC(=O)[C@@H](N)CCCCN)C(=O)NC(C)(C)C(=O)N[C@@H](Cc1ccc(Br)cc1)C(=O)O [Peptide 19] (H-KFRRQRPR[azaLeu]SHKGP[Nle][Aib][Phe(4-Br)]-OH; N-terminus and C-terminus assumed) | 82 ± 1 | 68 ± 4 | no ability to inhibit the inherent activity of NEP |  | sub-nanomolar receptor affinities | equivalent ability to rescue the heart from ischemic reperfusion injury compared to native isoform 2 | slight improvement over the native isoform | potent hypotensive activity that rivaled or bested that of native 2 or A2 variant 5 |
